Measurements: the supplement of paper PMC10307832

What was measured:
Assay in all cases: relative viability (nuclei count vs DMSO), 5 days (fraction); higher = more cells survive
NCI-H1395 = tested on: NCI-H1395
Summary of the method: (§1)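 Medians of duplicate plates are given as relative viability. That measure is the nuclei count in treated wells divided by the count in vehicle wells. Counts were taken on 4× images of lung cancer cell lines in 1536-well plates, 5 days after pin-tool dosing the day after seeding with one drug alone or a fixed anchor-drug dose plus five library-drug doses (not always all listed) in √10 steps.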

COR-L 105 = tested on: COR-L 105
Summary of the method: as §1

NCI-H2087 = tested on: NCI-H2087
Summary of the method: as §1

SW 1573 = tested on: SW 1573
Summary of the method: as §1

NCI-H1666 = tested on: NCI-H1666
Summary of the method: as §1

NCI-H1437 = tested on: NCI-H1437
Summary of the method: as §1

EKVX = tested on: EKVX
Summary of the method: as §1

HOP-62 = tested on: HOP-62
Summary of the method: as §1

LU99A = tested on: LU99A
Summary of the method: as §1

PC-3 [JPC-3] = tested on: PC-3 [JPC-3]
Summary of the method: as §1

NCI-H358 = tested on: NCI-H358
Summary of the method: as §1

LCLC-97TM1 = tested on: LCLC-97TM1
Summary of the method: as §1

HCC-827 = tested on: HCC-827
Summary of the method: as §1

201T = tested on: 201T
Summary of the method: as §1

NCI-H2342 = tested on: NCI-H2342
Summary of the method: as §1

BEN = tested on: BEN
Summary of the method: as §1

H3255 = tested on: H3255
Summary of the method: as §1

HCC-44 = tested on: HCC-44
Summary of the method: as §1

NCI-H2085 = tested on: NCI-H2085
Summary of the method: as §1

EPLC-272H = tested on: EPLC-272H
Summary of the method: as §1

NCI-H1975 = tested on: NCI-H1975
Summary of the method: as §1

LOU-NH91 = tested on: LOU-NH91
Summary of the method: as §1

NCI-H647 = tested on: NCI-H647
Summary of the method: as §1

Oc1nc(-c2ccc(C(F)(F)F)cc2)nc2c1CSCC2 [XAV939] + CCNC(=O)c1noc(-c2cc(C(C)C)c(O)cc2O)c1-c1ccc(CN2CCOCC2)cc1 [Luminespib] (partner 0.01 µM)
relative viability (NCI-H1395; first compound 0.08 µM): 0.614
relative viability (NCI-H1395; first compound 0.253 µM): 0.725
relative viability (NCI-H1395; first compound 0.8 µM): 0.721
relative viability (NCI-H1395; first compound 2.53 µM): 0.662
relative viability (COR-L 105; first compound 0.08 µM): 0.964
relative viability (COR-L 105; first compound 0.253 µM): 0.742
relative viability (COR-L 105; first compound 0.8 µM): 0.458
relative viability (COR-L 105; first compound 2.53 µM): 0.763
relative viability (NCI-H2087; first compound 0.08 µM): 0.165
relative viability (NCI-H2087; first compound 0.253 µM): 0.128
relative viability (NCI-H2087; first compound 0.8 µM): 0.152
relative viability (NCI-H2087; first compound 2.53 µM): 0.142
relative viability (SW 1573; first compound 0.08 µM): 0.691
relative viability (SW 1573; first compound 0.253 µM): 0.249
relative viability (SW 1573; first compound 0.8 µM): 0.136
relative viability (SW 1573; first compound 2.53 µM): 0.226
relative viability (NCI-H1666; first compound 0.08 µM): 1.07
relative viability (NCI-H1666; first compound 0.253 µM): 0.666
relative viability (NCI-H1666; first compound 0.8 µM): 0.981
relative viability (NCI-H1666; first compound 2.53 µM): 0.848
relative viability (NCI-H1437; first compound 0.08 µM): 1.2
relative viability (NCI-H1437; first compound 0.253 µM): 1.09
relative viability (NCI-H1437; first compound 0.8 µM): 1.14
relative viability (NCI-H1437; first compound 2.53 µM): 0.911
relative viability (EKVX; first compound 0.08 µM): 0.947
relative viability (EKVX; first compound 0.253 µM): 0.786
relative viability (EKVX; first compound 0.8 µM): 0.818
relative viability (EKVX; first compound 2.53 µM): 0.7
relative viability (HOP-62; first compound 0.08 µM): 1.01
relative viability (HOP-62; first compound 0.253 µM): 0.869
relative viability (HOP-62; first compound 0.8 µM): 1
relative viability (HOP-62; first compound 2.53 µM): 0.74
relative viability (LU99A; first compound 0.08 µM): 0.277
relative viability (LU99A; first compound 0.253 µM): 0.253
relative viability (LU99A; first compound 0.8 µM): 0.254
relative viability (LU99A; first compound 2.53 µM): 0.195
relative viability (PC-3 [JPC-3]; first compound 0.08 µM): 0.829
relative viability (PC-3 [JPC-3]; first compound 0.253 µM): 0.647
relative viability (PC-3 [JPC-3]; first compound 0.8 µM): 0.68
relative viability (PC-3 [JPC-3]; first compound 2.53 µM): 0.635
relative viability (NCI-H358; first compound 0.08 µM): 0.289
relative viability (NCI-H358; first compound 0.253 µM): 0.32
relative viability (NCI-H358; first compound 0.8 µM): 0.293
relative viability (NCI-H358; first compound 2.53 µM): 0.412
relative viability (LCLC-97TM1; first compound 0.08 µM): 0.977
relative viability (LCLC-97TM1; first compound 0.253 µM): 0.763
relative viability (LCLC-97TM1; first compound 0.8 µM): 0.835
relative viability (LCLC-97TM1; first compound 2.53 µM): 0.765
relative viability (HCC-827; first compound 0.08 µM): 0.743
relative viability (HCC-827; first compound 0.253 µM): 0.739
relative viability (HCC-827; first compound 0.8 µM): 0.587
relative viability (HCC-827; first compound 2.53 µM): 0.396
relative viability (201T; first compound 0.08 µM): 1.02
relative viability (201T; first compound 0.253 µM): 0.994
relative viability (201T; first compound 0.8 µM): 1.05
relative viability (201T; first compound 2.53 µM): 0.877
relative viability (NCI-H2342; first compound 0.08 µM): 0.645
relative viability (NCI-H2342; first compound 0.253 µM): 0.601
relative viability (NCI-H2342; first compound 0.8 µM): 0.546
relative viability (NCI-H2342; first compound 2.53 µM): 0.402
relative viability (BEN; first compound 0.08 µM): 0.237
relative viability (BEN; first compound 0.253 µM): 0.211
relative viability (BEN; first compound 0.8 µM): 0.334
relative viability (BEN; first compound 2.53 µM): 0.262
relative viability (H3255; first compound 0.08 µM): 1.09
relative viability (H3255; first compound 0.253 µM): 0.879
relative viability (H3255; first compound 0.8 µM): 0.804
relative viability (H3255; first compound 2.53 µM): 0.907
relative viability (HCC-44; first compound 0.08 µM): 1.61
relative viability (HCC-44; first compound 0.253 µM): 0.981
relative viability (HCC-44; first compound 0.8 µM): 1.12
relative viability (HCC-44; first compound 2.53 µM): 0.974
relative viability (NCI-H2085; first compound 0.08 µM): 0.446
relative viability (NCI-H2085; first compound 0.253 µM): 0.422
relative viability (NCI-H2085; first compound 0.8 µM): 0.431
relative viability (NCI-H2085; first compound 2.53 µM): 0.406
relative viability (EPLC-272H; first compound 0.08 µM): 0.954
relative viability (EPLC-272H; first compound 0.253 µM): 0.361
relative viability (EPLC-272H; first compound 0.8 µM): 0.317
relative viability (EPLC-272H; first compound 2.53 µM): 0.184
relative viability (NCI-H1975; first compound 0.08 µM): 0.217
relative viability (NCI-H1975; first compound 0.253 µM): 0.246
relative viability (NCI-H1975; first compound 0.8 µM): 0.204
relative viability (NCI-H1975; first compound 2.53 µM): 0.139
relative viability (LOU-NH91; first compound 0.08 µM): 0.322
relative viability (LOU-NH91; first compound 0.253 µM): 0.337
relative viability (LOU-NH91; first compound 0.8 µM): 0.432
relative viability (LOU-NH91; first compound 2.53 µM): 0.295
relative viability (NCI-H647; first compound 0.08 µM): 0.252
relative viability (NCI-H647; first compound 0.253 µM): 0.173
relative viability (NCI-H647; first compound 0.8 µM): 0.156
relative viability (NCI-H647; first compound 2.53 µM): 0.143
